According to patent US20230183263A1, “COMBINATION FOR TREATING HEPATITIS B” (FUJIAN AKEYLINK BIOTECHNOLOGY CO., LTD., priority 2020, published 2023):

Columns and labels:
[1] = test system: D-type HBV; assay: Single drug in vitro antiviral activity in HBV-infected PHH (HBV DNA qPCR, HBeAg and HBsAg ELISA); assay type: cell-based, Hepatitis B Virus; conditions: for EC50: Hepatitis B virus, 192 h, Day 8
Procedure: 1. The PHH model was used to evaluate the single drug in vitro antiviral activity of the test compound
On day 0, primary human hepatocytes were resuscitated and plated into two 48-well plates (1.32×10^5 cells/well).
On day 1, HBV was added to infect PHH (2000 GE/cell). […] Fresh medium with compound was replaced every 1 to 2 days.
The final concentration of DMSO in the medium was 2%.
The medium was replaced with the fresh medium containing the compound on days 4, 6, 8, 10, 12, 14, 16, 18 and 20. On day 22, the culture supernatant was collected and cell viability was detected using CellTiter-Glo.
Cell culture supernatants on days 8, 14 and 22 were collected for HBV DNA, HBeAg and HBsAg detection.
(§1) HBV DNA detection: DNA in the supernatant was extracted according to the DNA extraction kit (Qiagen-51162), and HBV DNA in the sample was quantified by qPCR method, and the qPCR reaction system is shown in Table 6. HBV plasmid DNA was used as a standard for 10-fold serial dilution, and the standard range was from 1.0× 10^7 copies/µL to 10 copies/µL. The PCR reaction program was: Heating at 95° C. for 10 minutes, then cycle mode was entered, and heating at 95° C. for 15 seconds, then at 60° C. for 1 minute for a total of 40 cycles. The HBV DNA content in the samples was calculated based on the standard curve and the Ct value of each sample.
(§2) Detection of HBeAg and HBsAg: According to the instructions of ELISA kit, the levels of HBeAg and HBsAg in supernatant were detected. The method was briefly described as follows: 50 µL, of standard was taken, and sample and control sample were added into the detection plate, then 50 µL of enzyme conjugate was added to each well, incubated at 37° C. for 60 minutes, and washed with a washing solution and then dried, and then 50 µL of pre-mixed luminescent substrate was added and the mixture was incubated at room temperature for 10 minutes in the dark, and finally the luminescence value was measured by a microplate reader. The content of HBeAg and HBsAg in the sample was calculated according to the standard curve and the chemiluminescence value of each sample.
(§3) Inhibition rate %=(1- HBV DNA content or HBsAg content or HBeAg content in the sample/HBV DNA content or HBsAg content or HBeAg content in DMSO control group) × 100
CC50 and EC50 were calculated by GraphPad Prism software, and the inhibition curve fitting method was sigmoidal dose-response (variable slope).

[2] = Cell viability of PHH by CellTiter-Glo; assay type: cell-based, human; conditions: human, primary human hepatocytes (PHH), HBV infection model, administration after infection, Day 22
Procedure: (§4) The medium was replaced with the fresh medium containing the compound on days 4, 6, 8, 10, 12, 14, 16, 18 and 20. On day 22, the culture supernatant was collected and cell viability was detected using CellTiter-Glo. The final concentration of DMSO in the cell medium was 2%. The medium was replaced with the medium containing the compound on days 4 and 6. On day 8, the culture supernatant was collected for detecting HBV DNA, HBeAg and HBsAg, and then the collected supernatant was added with CellTiter-Glo to measure cell viability. The final concentration of DMSO in the medium was 2%. The medium was replaced with the medium containing the compound on days 4 and 6. On day 8, the culture supernatant was collected for detecting HBV DNA, HBeAg and HBsAg, and then the collected cell supernatant was added with CellTiter-Glo to measure cell viability. Cell viability detection: After collecting the cell culture supernatant, CellTiter-Glo was diluted with medium at a ratio of 1:1, and added to the cell plate, and left at room temperature for 10 minutes to detect the luminescence value with a microplate reader. Cell activity% = (luminescence value of sample-average value of blank control well)/(luminescence value of DMSO control group-average value of blank control well) × 100 CC50 and EC50 were calculated by GraphPad Prism software, and the inhibition curve fitting method was sigmoidal dose-response (variable slope).

[3] = test system: human primary hepatocytes (PHH); assay: Cell viability of PHH by CellTiter-Glo; assay type: cell-based
Procedure: as §4

[4] = test system: D-type HBV; assay: Single drug anti-HBV activity in HepG2-NTCP in vitro infection model; assay type: cell-based, Hepatitis B Virus; conditions: for EC50: Hepatitis B virus, 216 h, HepG2-NTCP
Procedure: (§5) In this study, HepG2-NTCP cell in vitro infection model was used to evaluate the inhibitory activity of a combined administration of compound WWSO with Entecavir (ETV) on HBV The content of HBV DNA in cell supernatant was detected by real-time quantitative PCR (qPCR) method, and the content of HBeAg and HBsAg was detected by ELISA, and the anti-HBV activity of the combined action of the compound was determined, while CellTiter-Glo was used to detect the effect of the test compound on cell viability.
(§6) Cell line: HepG2-NTCP cell line was constructed and provided by WuXi AppTec. HepG2-NTCP cells were HepG2 cells stably transfected and continued to highly express the human NTCP gene, and were susceptible to be infected by HBV The cell medium was DMEM medium added with 10% fetal bovine serum, 1% Penicillin-Streptomycin, 1% glutamine, 1% non-essential amino acids and G418 (500 µg/mL).
Virus: D-type HBV was concentrated from HepG2.2.15 cell culture supernatants.
2.1 On day 0, HepG2-NTCP cells were seeded into a 48-well cell culture plate at a density of 75,000 cells/well, and then the cells were cultured at 5% CO2 and 37° C. overnight.
2.2 On day 2, HBV was added to infect HepG2-NTCP cells.
2.3 On day 3, WWSO and ETV single drugs were administered at seven different concentrations, respectively, or WWSO in combination with ETV was administered at 5 different concentrations in orthorhombic proportion, added to 48-well plates with each combination having three duplicate plates.
2.4 On day 6, the cell supernatant was discarded and fresh medium containing the compounds was added, and the cells were cultured at 5% CO2 and 37° C. for 3 days.
(§7) 2.5 On day 9, cell plate supernatant treated by compound was collected and DNA was extracted according to the QIAamp 96 DNA Blood Kit (12) instructions. HBeAg and HBsAg were detected according to the instructions of ELISA detection kit, meanwhile, the cytotoxicity of compound pairs was detected by CellTiter-Glo kit, and the chemiluminescence intensity (RLU) of each cell well was detected by multifunctional microplate reader according to the method of kit instructions. HBV DNA was quantified by qPCR method. HBV plasmid DNA was used as the standard, and standard HBV plasmid DNA concentration was diluted 7 points starting from 10^7 copies/µL at a 10-fold gradient. The HBV DNA copy number was calculated in each test sample by fitting the standard curve using the HBV DNA copy number and CT values of each standard.

[5] = Cytotoxicity in HepG2-NTCP cells by CellTiter-Glo; assay type: cell-based, human; conditions: human, single drug, day 9
Procedure: as §5, §6, §7

[6] = test system: HepG2-NTCP cells; assay: Cytotoxicity in HepG2-NTCP cells by CellTiter-Glo; assay type: cell-based, human; conditions: single drug and combined action experiments
Procedure: as §5, §6, §7

[7] = test system: D-type HBV; assay: Combined administration in HBV-infected PHH, 5x5 matrix, MacSynergy II analysis; assay type: cell-based, Hepatitis B Virus; conditions: two-drug combination with Peg-IFNα-2a; for antagonistic index (inhibition of HBsAg and HBeAg): 95% confidence interval
Procedure: On day 0, primary human hepatocytes were resuscitated and plated into six 48-well plates (1.32×10^5 cells/well).
On day 1, […] (2000 GE/cell). On the second day, different groups of combined drugs were added for treatment:
The arrangement of the compounds in the combined action is shown in Table 2, and the test concentrations of the compounds are shown in Table 3.
(§8) The final concentration of DMSO in the cell medium was 2%. The medium was replaced with the medium containing the compound on days 4 and 6. On day 8, the culture supernatant was collected for detecting HBV DNA, HBeAg and HBsAg, and then the collected supernatant was added with CellTiter-Glo to measure cell viability.
The arrangement of the compounds in the combined action is shown in Table 4, and the test concentrations of the compounds are shown in Table 5.
as §8, with “in the medium was” for “in the cell medium was”, “the collected cell supernatant was” for “the collected supernatant was”
as §1, §2, §3
Combined efficacy was analyzed by MacSynergy™ II software.

Row | SMILES | EC50 ([4]; day 9, read-out: HBV DNA EC50) [nM] | EC50 ([4]; day 9, read-out: HBeAg EC50) [nM] | EC50 ([4]; day 9, read-out: HBsAg EC50) [nM] | CC50 at 9 day of experiment (read-out) [5] [nM] | combined effect on the inhibition of HBsAg and HBeAg [7] | antagonistic index (inhibition of HBsAg and HBeAg) [7] | also measured
1 | COCCCOc1cc2c(cc1Cl)-c1cc(=O)c(C(=O)O)cn1[C@H](c1cccs1)O2 [WWS0] | 1.01 | 2.51 | 3.19 | > 100 | – | – | EC50 ([1]; PHH, administration after infection, read-out: EC50 (Day 8) HBV DNA): 45.5 nM; EC50 ([1]; PHH, administration after infection, read-out: EC50 (Day 8) HBeAg): 32.4 nM; EC50 ([1]; PHH, administration after infection, read-out: EC50 (Day 8) HBsAg): 47.3 nM; EC50 ([1]; PHH, administration before infection, read-out: EC50 (Day 8) HBV DNA): 13.5 nM; EC50 ([1]; PHH, administration before infection, read-out: EC50 (Day 8) HBeAg): 26 nM; EC50 ([1]; PHH, administration before infection, read-out: EC50 (Day 8) HBsAg): 47.1 nM; inhibition of HBV DNA, HBeAg and HBsAg ([1]; PHH in vitro infection model, single drug): dose-dependent manner; inhibition of HBV replication, administration before versus after HBV infection ([1]; PHH, two modes of administration compared): basically the same; CC50 at 22 day of experiment (read-out) [2]: > 1000 nM; CC50 ([3]; administration before infection, Day 22): > 1000 nM; cytotoxicity within the test concentration range ([3]; single drug and combined action experiment): no obvious cytotoxicity; inhibition of HBV DNA, HBeAg and HBsAg ([4]; HepG2-NTCP infected by HBV): dose-dependent manner; cytotoxicity within the test concentration range [6]: no obvious cytotoxicity
2 | COCCCOc1cc2c(cc1OC)-c1cc(=O)c(C(=O)O)cn1[C@H](c1sccc1Cl)O2 [WWS02] | – | – | – | – | synergistic or additive effects | 0 | –
3 | O=C(O)c1cn2c(cc1=O)-c1cc(Cl)c(OCCN3CCOCC3)cc1OC2c1ccccc1 (stereo not drawn) [WWS01] | – | – | – | – | synergistic or additive effects | 0 | –
4 | C=C1[C@H](CO)[C@@H](O)C[C@@H]1n1cnc2c(=O)[nH]c(N)nc21 [ETV, Entecavir, reference compound] | 0.06 | > 20 | > 20 | > 20 | – | – | –
5 | O=C(O)c1cn2c(cc1=O)-c1cc(Cl)c(OCC3CC3)cc1O[C@H]2c1scnc1Cl [WWS03] | – | – | – | – | synergistic or additive effects | 0 | –
